Experimental data taken from US20140235542A1, “MODULAR, BIOACTIVE PEPTIDES FOR BINDING NATIVE BONE AND IMPROVING BONE GRAFT OSTEOINDUCTIVITY” (WISCONSIN ALUMNI RESEARCH FOUNDATION, priority 2013, published 2014).
Square brackets hold non-standard residues; d marks the D form. Ends that are not written are not given here. Gla = N[C@@H](CC(C(=O)O)C(=O)O)C(=O)O

Legend:
[1] = Release kinetics of modular peptides from HA-coated film; settings: after 5 days, PBS, 37° C.
Method: To quantify release kinetics of 5(6) FAM-conjugated modular peptides from HA-coated film, the films were first incubated in solutions containing 250 μM (˜500 μg) of each peptide (eBGu1, eBGu3, eBGa1, or eBGa3) to allow for binding (as described above), then incubated in 500 μl of PBS buffer at 37° C. with constant agitation for 5 days (eBGu1 and eBGu3 peptides) or 10 weeks (eBGa1 and eBGa3 peptides), respectively. Whole buffer solutions were changed at indicated time points and the amount of peptide released from the HA-coated film was determined via fluorescence analysis and comparison with standards containing known amounts of 5(6)-FAM. The fluorescent images of fluorescently-labeled peptides bound to HA-coated films were obtained using an Olympus IX51 fluorescence microscope (Olympus, Center Valley, Pa.).

[2] = Binding of 5(6)-FAM-conjugated modular peptides to HA-coated PLG films; settings: 500 μg (1 mg/ml) 5(6)-FAM-conjugated peptide in PBS, 4 hr, 37° C., constant agitation
Method: Poly (lactide-coglycolide) (PLG) films were prepared via a solvent casting process in which PLG (85:15) pellets were dissolved in chloroform (50 mg/ml), added to a PTFE dish, and dried for 2 days. The films were further dried at 50-55° C. for 4 hr to remove residual solvent and samples were cooled to room temperature. Square films (1 cm^2) were manually cut out of the resulting PLG film sheets. A “bone-like” HA-based material layer was grown on the PLG films using a direct deposition technique by biomimetic mineralization in modified simulated body fluid (mSBF).
To measure the binding efficiency of modular peptides to the HA-coated PLG films and to gain preliminary insight into the properties that influence modular peptide immobilization, 1 cm^2 HA-coated PLG films was first exposed to PBS solutions containing 500 μg (1 mg/ml) of 5(6) FAM-conjugated eBMP-2, eBGu1, eBGu3, eBGa1, or eBGa3 modular peptide solution (See Table 1 for definitions of these abbreviations). The films were incubated in peptide solutions with constant agitation for 4 hr at 37° C., and the amount of free peptide remaining was determined by measuring the fluorescence emission of the solution (excitation: 494 nm; emission 519 nm) using a Synergy HT Multi-Detection Microplate Reader (BioTek, Winooski, Vt.), and comparing this emission to standard samples with known concentrations of 5(6)-FAM. To further characterize surface immobilization of the peptide with the highest binding efficiency—the eBGa3 peptide-1 cm^2 HA-coated films were incubated in various concentrations (50-750 nM) of 5(6)-FAM-conjugated eBGa3 peptide for 4 hr with constant agitation at 37° C. The amount of peptide bound to HA-coated film was again determined by fluorescence analysis, as described above.

[3] = Binding of rhodamine-labeled peptide to cortical bone; design: species or system sheep
Method: The native bone used were harvested from sheep tibia and bovine sternum. Cortical (compact) bone slices were collected from sheep tibia with periosteum removed, and trabecular (cancellous, spongy) bone cores were drilled out from bovine sternum under sterile conditions.
The peptide binding to native bones was tested in three different experiments. In the first experiment, the cortical bone slices were incubated in modular peptide solution (0.5 mL, PBS) with concentrations of 50, 100, 200 and 300 μg/mL. The incubation was continued in a static condition for a period of 0.5, 1, 2 and 3 hours. For another experiment, the trabecular bone cores were placed in the chamber of bone bioreactor where the peptide solution prepared in DMEM (100 μg/mL, 6.5 mL) was continuously circulated through the chamber for a time period of 2, 4, 6, 8 and 10 hours. In the last experiment, mBMP was bound in a spatially controlled manner by dip-coating, spotting or writing with mBMP solution on native bone tissues. Following each experiment, the bones were rinsed with PBS to remove unbound peptide and their fluorescence images were captured using a Typhoon fluorescence scanner (GE healthcare) or a Nikon Eclipse Ti inverted microscope. To quantify the fluorescence intensity, the images were converted into 8-bit using ImageJ to present the intensity level of each pixel in the range of 0 to 255. The mean pixel intensity of a selected region of interest was considered to be proportional to the amount of peptide bound.
To examine mBMP binding to cortical bone without periosteum (ca. 4 mm×7 mm×1.5 mm) from the shaft of sheep tibia, the bone tissue was incubated in mBMP solution prepared in phosphate buffered saline (PBS). The binding of mBMP was concentration-dependent for each incubation time tested (FIGS. 12 and 13A). The quantity of mBMP binding was proportional to the solution concentration, which was clearly observed through all concentrations at 0.5 hour. However, this dependence was not apparent at higher concentrations at later time points. […] The insignificant dependence on the incubation time is likely attributed to the rapid binding of mBMP to native bone tissue.

[4] = Binding of VEGF peptides to HA particles / HA slab
Method: The binding behavior of the peptides (both modular peptide, VEGF-OCN (SEQ ID NO:18), and VEGF-mimic) were analyzed and compared as described above. The amount of bound VEGF-OCN on the HA particle increased with peptide concentration and reached saturation at 15 μM (FIG. 8A).

[5] = system: mouse yolk sac endothelial C166-GFP cells; test: C166-GFP cell proliferation on peptide-treated HA slabs (CYQUANT); type: cell-based; settings: 2-day culture on HA slab incubated in peptide solution
Method: Cells were again seeded at a density of 2×10^4 cells/cm^2 (4×10^4 cells per well) in 24-well plate. Prior to seeding, HA slabs (1 cm×1 cm) were incubated in peptide solution (PBS) for four hours at 37° C. and copiously rinsed with deionized water, and then placed in a well of the 24-well plate. After 1-day culture, cells were treated with 2 μM calcein AM solution, and imaged using Olympus IX-51 microscope.
Additionally, a cell number count of the C166-GFP cells as cultured in the presence of VEGF-OCN or VEGF mimic was determined For the cell count, cells were seeded at a density of 5×10^3 cells/cm^2 (1×10^4 cells per well) in a 24-well plate. After 2-day culture, cells were detached from the HA slab and cell number was assessed using CYQUANT assay.

| Substance | peptide released from HA-coated films [1] [%] | binding efficiency on the HA-coated PLG films [2] [%] | other results |
| --- | --- | --- | --- |
| KIPKASSVPTELSAIATLYLAAAAEPRRAVAAL [eBGu1, modular BMP-2/OCN peptide with one Glu residue] | 98.89±18.84 | 10.3±4.7 | – |
| KIPKASSVPTELSAISTLYLAAAAEPRREVAEL [eBGu3, modular BMP-2/OCN peptide with Glu in place of Gla at three positions] | 93.33±17.24 | 7.6±7.8 | dependence of binding to cortical bone on concentration and incubation time ([3]; 50-300 μg/mL in PBS, 0.5-3 hours): independent of incubation time and peptide concentration; amount of peptide bound to cortical bone ([3]; each experimental condition tested): significantly less than that of mBMP |
| KIPKASSVPTELSAISTLYLAAAAγEPRRAVAAL (KIPKASSVPTELSAISTLYLAAAA[Gla]PRRAVAAL-NH2; N-terminus assumed; SMILES CC[C@H](C)[C@H](NC(=O)[C@H](C)NC(=O)[C@H](CO)NC(=O)[C@H](CC(C)C)NC(=O)[C@H](CCC(=O)O)NC(=O)[C@@H](NC(=O)[C@@H]1CCCN1C(=O)[C@@H](NC(=O)[C@H](CO)NC(=O)[C@H](CO)NC(=O)[C@H](C)NC(=O)[C@H](CCCCN)NC(=O)[C@@H]1CCCN1C(=O)[C@@H](NC(=O)[C@@H](N)CCCCN)[C@@H](C)CC)C(C)C)[C@@H](C)O)C(=O)N[C@@H](CO)C(=O)N[C@H](C(=O)N[C@@H](CC(C)C)C(=O)N[C@@H](Cc1ccc(O)cc1)C(=O)N[C@@H](CC(C)C)C(=O)N[C@@H](C)C(=O)N[C@@H](C)C(=O)N[C@@H](C)C(=O)N[C@@H](C)C(=O)N[C@@H](CC(C(=O)O)C(=O)O)C(=O)N1CCC[C@H]1C(=O)N[C@@H](CCCNC(=N)N)C(=O)N[C@@H](CCCNC(=N)N)C(=O)N[C@@H](C)C(=O)N[C@H](C(=O)N[C@@H](C)C(=O)N[C@@H](C)C(=O)N[C@@H](CC(C)C)C(N)=O)C(C)C)[C@@H](C)O) [eBGa1, modular BMP-2/OCN peptide with one Gla residue] | – | 29.9±2 | – |
| KLTWQELYQLKYKGI [VEGF-mimic, VEGF helical region mimic first synthesized by Pedon, et al, reference compound] | – | – | amount of peptide bound to HA slab ([4]; HA slab, qualitative comparison): much less than that of VEGF-OCN |
| KLTWQELYQLKYKGI-GGGAAAA-γEPRRγEVAγEL (KLTWQELYQLKYKGIGGGAAAA[Gla]PRR[Gla]VA[Gla]L) [VEGF-OCN] | – | – | effect of peptide-treated HA slab on cell number [5]: promoted cell proliferation; peptide concentration at which bound amount on HA particle reached saturation ([4]; HA particles): 15 µM |
